Experimental data taken from patent US9040578B2, “Continuous administration of L-dopa, dopa decarboxylase inhibitors, catechol-O-methyl transferase inhibitors and compositions for same” (Neuroderm, Ltd., priority 2010, dated 2015).

Legend:
[1] = cited from earlier work; for Solubility: in words; for pH compatibility: check mark
[2] = Histological score of subcutaneous toxicity after 24 h continuous SC LD/CD; format: in vivo, Pigs; conditions: 0.2% added to LD/CD 5.4/1.5% + 1% ascorbate
[3] = molecular target: T1, Tyrosinase (Homo sapiens, UniProt P14679); conditions: tyrosinase inhibitor; cited from earlier work
T1 sequence (P14679 19-529): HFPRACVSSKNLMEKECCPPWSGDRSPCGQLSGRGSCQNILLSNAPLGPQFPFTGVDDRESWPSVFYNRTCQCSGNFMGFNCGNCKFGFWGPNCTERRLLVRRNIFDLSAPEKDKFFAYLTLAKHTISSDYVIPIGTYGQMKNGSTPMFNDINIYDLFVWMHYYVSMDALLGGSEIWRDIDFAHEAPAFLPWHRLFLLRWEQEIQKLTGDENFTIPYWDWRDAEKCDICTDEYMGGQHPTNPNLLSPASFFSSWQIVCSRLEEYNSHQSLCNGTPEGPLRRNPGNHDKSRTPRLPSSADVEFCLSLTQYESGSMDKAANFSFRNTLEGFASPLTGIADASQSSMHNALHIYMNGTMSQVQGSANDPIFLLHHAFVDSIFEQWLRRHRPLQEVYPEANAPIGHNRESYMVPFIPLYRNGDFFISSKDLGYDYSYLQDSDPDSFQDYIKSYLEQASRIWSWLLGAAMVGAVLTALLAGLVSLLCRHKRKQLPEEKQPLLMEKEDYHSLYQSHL

[4] = Titration with acetic or lactic acid: pH and physical stability (Table D); format: physicochemical
[5] = Chemical stability of levodopa formulations with carbidopa (Tables F, G); format: physicochemical; conditions: Table F
Experimental: The effect of carbidopa on levodopa formulations was investigated. Levodopa (LD) formulations were prepared with 0, 0.5, 1, 1.5 & 2% by weight carbidopa (CD) and a constant concentration of arginine.
In an additional experiment, LD formulations were prepared with 0, 0.5, 1 & 2% CD and respective concentrations of arginine.

[6] = Colour formation of levodopa/arginine solutions in vitro (FIG. 1A); format: physicochemical
Experimental: FIG. 1 depicts the effect of carbidopa on the stability of levodopa In Vitro and Ex Vivo: A. 6% weight levodopa and arginine solution with various concentrations (2, 1.5, 1, 0.5%) of carbidopa or no carbidopa were tested for physical stability in vitro. […] B. 7% weight percent levodopa and arginine solution, with or without 2% carbidopa by weight, continuously administered in to the subcutaneous tissue of a 5×5 cm fresh, full-thickness pig skin.
In the absence of air (with N2 in the head space) 0.5% CD was sufficient to inhibit this color formation.

[7] = Stability of carbidopa formulations with levodopa (Table H); format: physicochemical
Text: The effect of levodopa on the stability of carbidopa was investigated. Table H indicates results.

For `CC(C)(S)[C@@H](N)C(=O)O` [DPA (D-penicillamine), D-penicillamine], the Solubility [1] is listed as “Soluble”.
For `Cn1cc[nH]c1=S` [Methimazole], the Solubility [1] is listed as “Soluble”.
For `C[C@H](CS)C(=O)N1CCC[C@H]1C(=O)O` [Captopril], the “protection from local toxicity compared to 1% ascorbate alone” value [2] is listed as “did not have a supplementary effect”, the Solubility [1] is listed as “Soluble” and the Min required concentration [3] is listed as 0.04 mg/mL.
With `O=C1O[C@H]([C@@H](O)CO)C(O)=C1O` [Ascorbic acid] the “reduction of pH as compared to Na-ascorbate” value [4] was 0.1-0.15 units.
In the case of `N[C@@H](CS)C(=O)O` [L-Cysteine], the Solubility [1] is listed as “Soluble”.
In the case of `O=C(O)[C@@H](S)[C@@H](S)C(=O)O` [DMSA (succimer)], the Solubility [1] is listed as “Soluble”.
For `O=C([O-])CN(CCN(CC(=O)[O-])CC(=O)O)CC(=O)O.[Na+].[Na+]` [EDTA disodium], the pH compatibility [1] is listed as “√”.
In the case of `O=C([O-])CN(CCN(CC(=O)[O-])CC(=O)[O-])CC(=O)[O-].[Ca+2].[Na+].[Na+]` [EDTA calcium disodium], the “protection from local toxicity compared to 1% ascorbate alone” value [2] is listed as “did not have a supplementary effect” and the pH compatibility [1] is listed as “√”.
In the case of `C[C@@](Cc1ccc(O)c(O)c1)(NN)C(=O)O` [carbidopa], the “effect on the chemical stability of levodopa” value [5] is reported as “does not have a significant effect”, the “dark yellow color formation” value ([6]; 6% levodopa/arginine solution, in the presence of air, dose related) is reported as “prevented dark yellow color formation” and the “carbidopa concentration sufficient to inhibit color formation” value ([6]; absence of air (N2 in the head space)) is reported as 0.5%. For the same compound, the “sensitivity of CD to oxidation and degradation” value [7] was “more stable in the presence of LD”.
